The numbers were not newly measured in patent US10722456B2, “Oral composition of celecoxib for treatment of pain” (Dr. Reddy's Laboratories Ltd., priority 2016, dated 2020), which cites them from elsewhere.

The conditions of this data set: oral administration.

For the compound `Cc1ccc(-c2cc(C(F)(F)F)nn2-c2ccc(S(N)(=O)=O)cc2)cc1` [Celecoxib, 4-[5-(4-methylphenyl)—3-(trifluoromethyl)-1H-pyrazol-1-yl] benzenesulfonamide], the “time for peak plasma concentrations to be achieved” value was “approximately 3.0 hours”.
